Test results published in the NIST ThermoML archive (doi:10.1016/j.jct.2012.03.011).
± gives the expanded uncertainty stated by the source.

Tests used:
[1] = excess molar enthalpy (molar enthalpy of mixing); xn = mol fraction of the nth substance listed; conditions: 298.15 K, 101 kPa, Liquid, Calvet calorimetry
[2] = xn = mol fraction of the nth substance listed; conditions: 298.15 K, 101 kPa, Liquid, Vibrating tube method
[3] = refractive index (Na D-line) (dimensionless); conditions: 298.15 K; 101.33 kPa; Liquid; Standard Abbe refractometry
[4] = 298.15 K; 101.33 kPa; Liquid; Vibrating tube method

CCCCCCCCCCCC [dodecane] + CCOC(C)=O
Conditions	excess molar enthalpy [kcal/mol]	mass density [kg/m3]
[1], x1 = 0.0232	0.0564 ± 0.00143	–
[1], x1 = 0.0541	0.12 ± 0.00263	–
[1], x1 = 0.0898	0.184 ± 0.00406	–
[1], x1 = 0.1316	0.246 ± 0.00526	–
[1], x1 = 0.18	0.306 ± 0.00645	–
[1], x1 = 0.2292	0.353 ± 0.00765	–
[1], x1 = 0.279	0.389 ± 0.00837	–
[1], x1 = 0.3296	0.416 ± 0.00884	–
[1], x1 = 0.3789	0.434 ± 0.00932	–
[1], x1 = 0.4062	0.442 ± 0.00932	–
[1], x1 = 0.4261	0.444 ± 0.00956	–
[1], x1 = 0.4718	0.448 ± 0.00956	–
[1], x1 = 0.4736	0.446 ± 0.00956	–
[1], x1 = 0.5534	0.43 ± 0.00908	–
[1], x1 = 0.647	0.385 ± 0.00813	–
[1], x1 = 0.7424	0.313 ± 0.00669	–
[1], x1 = 0.8396	0.214 ± 0.00454	–
[1], x1 = 0.9339	0.101 ± 0.00215	–
[2], x1 = 0.097	–	860.06 ± 0.29
[2], x1 = 0.146	–	846.23 ± 0.3
[2], x1 = 0.1976	–	833.46 ± 0.31
[2], x1 = 0.2508	–	821.88 ± 0.32
[2], x1 = 0.2979	–	812.79 ± 0.33
[2], x1 = 0.3903	–	797.68 ± 0.36
[2], x1 = 0.4943	–	783.92 ± 0.39
[2], x1 = 0.6	–	772.56 ± 0.43
[2], x1 = 0.6909	–	764.45 ± 0.46
[2], x1 = 0.7392	–	760.65 ± 0.48
[2], x1 = 0.7931	–	756.85 ± 0.5
[2], x1 = 0.8213	–	754.91 ± 0.51
[2], x1 = 0.8798	–	751.38 ± 0.53
[2], x1 = 0.9374	–	748.08 ± 0.55

CCOC(C)=O [ethyl acetate]
Conditions	mass density [kg/m3]	refractive index
[3]	–	1.37 ± 0.0005
[4]	894.34 ± 0.23	–

CCCCCCCCCCCC [dodecane]
Conditions	mass density [kg/m3]	refractive index
[3]	–	1.4192 ± 0.0006
[4]	745.1 ± 0.58	–

CCCCC(=O)OCC [ethyl pentanoate]
Conditions	mass density [kg/m3]	refractive index
[3]	–	1.3981 ± 0.0005
[4]	869.28 ± 0.23	–

CCCCC(=O)OCC [ethyl pentanoate] + CCOC(C)=O
Conditions	excess molar enthalpy [kcal/mol]	mass density [kg/m3]
[1], x1 = 0.0627	0.0117 ± 0.000478	–
[1], x1 = 0.1347	0.0213 ± 0.000478	–
[1], x1 = 0.2071	0.0282 ± 0.000717	–
[1], x1 = 0.2799	0.0332 ± 0.000717	–
[1], x1 = 0.3493	0.0351 ± 0.000717	–
[1], x1 = 0.4144	0.0363 ± 0.000956	–
[1], x1 = 0.4736	0.0375 ± 0.000956	–
[1], x1 = 0.5198	0.0368 ± 0.000956	–
[1], x1 = 0.561	0.0361 ± 0.000956	–
[1], x1 = 0.6071	0.0347 ± 0.000717	–
[1], x1 = 0.6645	0.0318 ± 0.000717	–
[1], x1 = 0.7376	0.0272 ± 0.000717	–
[1], x1 = 0.8193	0.021 ± 0.000478	–
[1], x1 = 0.8904	0.0139 ± 0.000478	–
[1], x1 = 0.9529	0.00717 ± 0.000239	–
[2], x1 = 0.0482	–	892.36 ± 0.23
[2], x1 = 0.0954	–	890.53 ± 0.23
[2], x1 = 0.148	–	888.63 ± 0.23
[2], x1 = 0.1941	–	887.05 ± 0.23
[2], x1 = 0.3047	–	883.64 ± 0.24
[2], x1 = 0.4	–	881.02 ± 0.24
[2], x1 = 0.4921	–	878.73 ± 0.24
[2], x1 = 0.5717	–	876.92 ± 0.24
[2], x1 = 0.6556	–	875.16 ± 0.24
[2], x1 = 0.6946	–	874.41 ± 0.24
[2], x1 = 0.7526	–	873.29 ± 0.24
[2], x1 = 0.7924	–	872.6 ± 0.2
[2], x1 = 0.8362	–	871.84 ± 0.24
[2], x1 = 0.8651	–	871.36 ± 0.24
[2], x1 = 0.9263	–	870.36 ± 0.24
[2], x1 = 0.9377	–	870.21 ± 0.24

CCCCC(=O)OCC [ethyl pentanoate] + CCCCCCCCCCCC
Conditions	excess molar enthalpy [kcal/mol]	mass density [kg/m3]
[1], x2 = 0.043	0.0459 ± 0.0012	–
[1], x2 = 0.0928	0.0887 ± 0.00191	–
[1], x2 = 0.1433	0.129 ± 0.00287	–
[1], x2 = 0.1957	0.163 ± 0.00359	–
[1], x2 = 0.2488	0.192 ± 0.00406	–
[1], x2 = 0.3005	0.214 ± 0.00454	–
[1], x2 = 0.3181	0.219 ± 0.00478	–
[1], x2 = 0.3511	0.23 ± 0.00502	–
[1], x2 = 0.3548	0.232 ± 0.00502	–
[1], x2 = 0.3978	0.242 ± 0.00526	–
[1], x2 = 0.446	0.25 ± 0.00526	–
[1], x2 = 0.5012	0.252 ± 0.0055	–
[1], x2 = 0.5648	0.247 ± 0.00526	–
[1], x2 = 0.6392	0.23 ± 0.00502	–
[1], x2 = 0.7228	0.197 ± 0.0043	–
[1], x2 = 0.8127	0.148 ± 0.00311	–
[1], x2 = 0.9036	0.0896 ± 0.00191	–
[2], x2 = 0.0505	–	858.92 ± 0.26
[2], x2 = 0.1024	–	849.09 ± 0.28
[2], x2 = 0.1522	–	840.25 ± 0.29
[2], x2 = 0.1998	–	832.32 ± 0.3
[2], x2 = 0.2496	–	824.53 ± 0.32
[2], x2 = 0.3013	–	816.7 ± 0.33
[2], x2 = 0.4039	–	802.81 ± 0.37
[2], x2 = 0.502	–	790.76 ± 0.4
[2], x2 = 0.6026	–	779.67 ± 0.43
[2], x2 = 0.6547	–	774.3 ± 0.45
[2], x2 = 0.6992	–	769.94 ± 0.47
[2], x2 = 0.7485	–	765.35 ± 0.48
[2], x2 = 0.7982	–	760.93 ± 0.5
[2], x2 = 0.847	–	756.88 ± 0.52
[2], x2 = 0.8918	–	753.23 ± 0.54
[2], x2 = 0.9497	–	748.76 ± 0.56
